Results: patent publication US9241921B2, “Photosensitizer composition for treating skin disorders” (priority 2011, dated 2016)

System: acne vulgaris
Test: Open-label prospective human study of topical ALA-PDT in acne vulgaris
Assay type: in vivo
Conditions: after treatment, amelioration of acne (FIG. 5)
Description: Photodynamic therapy with topical ALA composition as described in Example 1 was tested for the treatment of acne vulgaris, in an open-label prospective human study. 22 subjects with acne on their back were treated at 4 different sites with one of the following at each site: ALA plus red light (ALA-PDT), ALA alone, light alone, and untreated control. Half of the subjects were treated once; half were treated 4 times. 20% topical ALA of Example 1 was applied with 3 hr occlusion, and 150 J/cm^2 broad band light ([…]) was applied to the treated site. Sebum excretion rate and auto-fluorescence from follicular bacteria were measured before, and at 2, 3, 10, and 20 weeks after treatment. […]
Subjects were randomly divided into single treatment group or multiple treatment group. At baseline, clinical evaluations, natural bacterial porphyrin fluorescence photography, and sebum excretion rate (SER) evaluation were performed. […] In both groups, subjects returned one week after treatments for clinical evaluations and at weeks 2, 3, 10 and 20 for clinical, fluorescence, and SER evaluations.
Each subject's acne was visually assessed using an inflammatory acne score modified from that previously described (Burke et al., 1994). […] The numbers of comedo, inflammatory comedo, papules, pustules, nodules and cysts in each test area were recorded. […]

O=C(OOC(=O)c1ccccc1)c1ccccc1 [Benzoyl Peroxide]
time until therapeutic effect occurred: eight to twelve
